From PubChem BioAssay (NCI)
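A five-concentration, 48-hour dose response in 96-well plates underlies each endpoint, interpolated linearly between surrounding concentrations. TGI marks complete inhibition of growth.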

Key:
Assay in all cases: DTP human tumour cell line panel, 48 h
786-0 renal = system: 786-0 renal
A498 renal = system: A498 renal
A549 NSCLC = system: A549 NSCLC
ACHN renal = system: ACHN renal
CAKI-1 renal = system: CAKI-1 renal
CCRF-CEM leukemia = system: CCRF-CEM leukemia
COLO 205 colon = system: COLO 205 colon
DMS 114 small cell lung = system: DMS 114 small cell lung
DMS 273 small cell lung = system: DMS 273 small cell lung
EKVX NSCLC = system: EKVX NSCLC
HCT-116 colon = system: HCT-116 colon
HCT-15 colon = system: HCT-15 colon
HL-60(TB) leukemia = system: HL-60(TB) leukemia
HOP-18 NSCLC = system: HOP-18 NSCLC
HOP-62 NSCLC = system: HOP-62 NSCLC
HOP-92 NSCLC = system: HOP-92 NSCLC
HT29 colon = system: HT29 colon
IGROV1 ovarian = system: IGROV1 ovarian
K-562 leukemia = system: K-562 leukemia
KM12 colon = system: KM12 colon
KM20L2 colon = system: KM20L2 colon
LOX IMVI melanoma = system: LOX IMVI melanoma
LXFL 529 NSCLC = system: LXFL 529 NSCLC
M14 melanoma = system: M14 melanoma
M19-MEL melanoma = system: M19-MEL melanoma
MALME-3M melanoma = system: MALME-3M melanoma
MOLT-4 leukemia = system: MOLT-4 leukemia
NCI-H460 lung = system: NCI-H460 lung
NCI-H522 lung = system: NCI-H522 lung
OVCAR-3 ovarian = system: OVCAR-3 ovarian
OVCAR-4 ovarian = system: OVCAR-4 ovarian
OVCAR-5 ovarian = system: OVCAR-5 ovarian
OVCAR-8 ovarian = system: OVCAR-8 ovarian
RPMI-8226 leukemia = system: RPMI-8226 leukemia
SF-268 CNS = system: SF-268 CNS
SF-295 CNS = system: SF-295 CNS
SF-539 CNS = system: SF-539 CNS
SK-MEL-2 melanoma = system: SK-MEL-2 melanoma
SK-MEL-5 melanoma = system: SK-MEL-5 melanoma
SK-OV-3 ovarian = system: SK-OV-3 ovarian
SN12C renal = system: SN12C renal
SNB-19 CNS = system: SNB-19 CNS
SNB-75 CNS = system: SNB-75 CNS
SNB-78 CNS = system: SNB-78 CNS
SW-620 colon = system: SW-620 colon
TK-10 renal = system: TK-10 renal
U251 CNS = system: U251 CNS
UACC-257 melanoma = system: UACC-257 melanoma
UACC-62 melanoma = system: UACC-62 melanoma
UO-31 renal = system: UO-31 renal
XF 498 CNS = system: XF 498 CNS
BT-549 breast = system: BT-549 breast
DLD-1 colon = system: DLD-1 colon
DU-145 prostate = system: DU-145 prostate
HCC-2998 colon = system: HCC-2998 colon
HS 578T breast = system: HS 578T breast
MCF7 breast = system: MCF7 breast
MDA-MB-231 breast = system: MDA-MB-231 breast
MDA-MB-435 = system: MDA-MB-435
MDA-N = system: MDA-N
NCI-H226 lung = system: NCI-H226 lung
NCI-H23 lung = system: NCI-H23 lung
NCI/ADR-RES ovarian = system: NCI/ADR-RES ovarian
PC-3 prostate = system: PC-3 prostate
RXF 393 renal = system: RXF 393 renal
RXF-631 renal = system: RXF-631 renal
SK-MEL-28 melanoma = system: SK-MEL-28 melanoma
SR leukemia = system: SR leukemia
T-47D breast = system: T-47D breast

Compound: Cc1cc(NS(=O)(=O)c2ccc(NC(=O)c3ccc(Cl)c4c(Nc5ccc(S(=O)(=O)Nc6cc(C)on6)cc5)c5ccccc5nc34)cc2)no1
- TGI (786-0 renal): 32.2 µM
- TGI (A498 renal): 47.4 µM
- TGI (A549 NSCLC): 62.4 µM
- TGI (ACHN renal): 53.7 µM
- TGI (CAKI-1 renal): 30.6 µM
- TGI (CCRF-CEM leukemia): 51.8 µM
- TGI (COLO 205 colon): 41.4 µM
- TGI (DMS 114 small cell lung): 42.5 µM
- TGI (DMS 273 small cell lung): 42 µM
- TGI (EKVX NSCLC): 64.9 µM
- TGI (HCT-116 colon): 27.4 µM
- TGI (HCT-15 colon): 43 µM
- TGI (HL-60(TB) leukemia): 49.5 µM
- TGI (HOP-18 NSCLC): 30.4 µM
- TGI (HOP-62 NSCLC): 55 µM
- TGI (HOP-92 NSCLC): 46.2 µM
- TGI (HT29 colon): 41.6 µM
- TGI (IGROV1 ovarian): 49.7 µM
- TGI (K-562 leukemia): 64.3 µM
- TGI (KM12 colon): 44.3 µM
- TGI (KM20L2 colon): 40 µM
- TGI (LOX IMVI melanoma): 41.6 µM
- TGI (LXFL 529 NSCLC): 48.5 µM
- TGI (M14 melanoma): 49.4 µM
- TGI (M19-MEL melanoma): 50.3 µM
- TGI (MALME-3M melanoma): 48.7 µM
- TGI (MOLT-4 leukemia): 77.3 µM
- TGI (NCI-H460 lung): 53.9 µM
- TGI (NCI-H522 lung): 33.2 µM
- TGI (OVCAR-3 ovarian): 33.4 µM
- TGI (OVCAR-4 ovarian): 81.8 µM
- TGI (OVCAR-5 ovarian): 38.6 µM
- TGI (OVCAR-8 ovarian): > 100 µM
- TGI (RPMI-8226 leukemia): 72.7 µM
- TGI (SF-268 CNS): 42.3 µM
- TGI (SF-295 CNS): 57.4 µM
- TGI (SF-539 CNS): 32.3 µM
- TGI (SK-MEL-2 melanoma): 50.5 µM
- TGI (SK-MEL-5 melanoma): 55.4 µM
- TGI (SK-OV-3 ovarian): 42.2 µM
- TGI (SN12C renal): 41.7 µM
- TGI (SNB-19 CNS): 32.4 µM
- TGI (SNB-75 CNS): 24.5 µM
- TGI (SNB-78 CNS): 84.1 µM
- TGI (SW-620 colon): 66.1 µM
- TGI (TK-10 renal): 71.1 µM
- TGI (U251 CNS): 32.8 µM
- TGI (UACC-257 melanoma): 43.5 µM
- TGI (UACC-62 melanoma): 34.3 µM
- TGI (UO-31 renal): 37.1 µM
- TGI (XF 498 CNS): 75.9 µM

Compound: CC(=O)CC[N+](C)(C)C
- TGI (786-0 renal): 59.3 µM
- TGI (A498 renal): 91.9 µM
- TGI (A549 NSCLC): > 94.6 µM
- TGI (ACHN renal): 26.5 µM
- TGI (BT-549 breast): 62.6 µM
- TGI (CAKI-1 renal): 3.83 µM
- TGI (CCRF-CEM leukemia): 13.7 µM
- TGI (COLO 205 colon): 17.5 µM
- TGI (DLD-1 colon): 35.4 µM
- TGI (DMS 273 small cell lung): 53.2 µM
- TGI (DU-145 prostate): > 79 µM
- TGI (EKVX NSCLC): 28.9 µM
- TGI (HCC-2998 colon): 68.1 µM
- TGI (HCT-116 colon): 54.4 µM
- TGI (HCT-15 colon): 46.4 µM
- TGI (HL-60(TB) leukemia): 14 µM
- TGI (HOP-18 NSCLC): 30.5 µM
- TGI (HOP-62 NSCLC): > 100 µM
- TGI (HOP-92 NSCLC): 22.7 µM
- TGI (HS 578T breast): > 39.3 µM
- TGI (HT29 colon): 53.5 µM
- TGI (IGROV1 ovarian): 53.4 µM
- TGI (K-562 leukemia): 13.5 µM
- TGI (KM12 colon): > 81.5 µM
- TGI (KM20L2 colon): > 56.6 µM
- TGI (LOX IMVI melanoma): 37.8 µM
- TGI (LXFL 529 NSCLC): 27.2 µM
- TGI (M14 melanoma): 52.1 µM
- TGI (M19-MEL melanoma): > 58.2 µM
- TGI (MALME-3M melanoma): 24.2 µM
- TGI (MCF7 breast): 64.8 µM
- TGI (MDA-MB-231 breast): 38.6 µM
- TGI (MDA-MB-435): 76.7 µM
- TGI (MDA-N): > 100 µM
- TGI (MOLT-4 leukemia): 24.7 µM
- TGI (NCI-H226 lung): 88.2 µM
- TGI (NCI-H23 lung): 59.6 µM
- TGI (NCI-H460 lung): > 90 µM
- TGI (NCI-H522 lung): 1.96 µM
- TGI (NCI/ADR-RES ovarian): > 76.9 µM
- TGI (OVCAR-3 ovarian): 40.7 µM
- TGI (OVCAR-4 ovarian): 30.2 µM
- TGI (OVCAR-5 ovarian): 67.6 µM
- TGI (OVCAR-8 ovarian): 67.5 µM
- TGI (PC-3 prostate): 99.5 µM
- TGI (RPMI-8226 leukemia): 26 µM
- TGI (RXF 393 renal): 20.1 µM
- TGI (RXF-631 renal): > 100 µM
- TGI (SF-268 CNS): 76.8 µM
- TGI (SF-295 CNS): > 100 µM
- TGI (SF-539 CNS): 82.9 µM
- TGI (SK-MEL-2 melanoma): 64.4 µM
- TGI (SK-MEL-28 melanoma): 50 µM
- TGI (SK-MEL-5 melanoma): 59.6 µM
- TGI (SK-OV-3 ovarian): 51.9 µM
- TGI (SN12C renal): 53.6 µM
- TGI (SNB-19 CNS): > 36.9 µM
- TGI (SNB-75 CNS): 70.3 µM
- TGI (SNB-78 CNS): 19.7 µM
- TGI (SR leukemia): 21.5 µM
- TGI (SW-620 colon): 27.8 µM
- TGI (T-47D breast): 52.7 µM
- TGI (TK-10 renal): 38.9 µM
- TGI (U251 CNS): 59.9 µM
- TGI (UACC-257 melanoma): 54.6 µM
- TGI (UACC-62 melanoma): 52.4 µM
- TGI (UO-31 renal): 67.8 µM

Compound: O=C(CC1(O)C(=O)Nc2ccccc21)c1ccc(Cl)c(Cl)c1 (configuration not stated)
- TGI (786-0 renal): > 100 µM
- TGI (A498 renal): > 100 µM
- TGI (A549 NSCLC): > 100 µM
- TGI (ACHN renal): > 100 µM
- TGI (CAKI-1 renal): > 100 µM
- TGI (CCRF-CEM leukemia): > 100 µM
- TGI (COLO 205 colon): > 100 µM
- TGI (DLD-1 colon): > 100 µM
- TGI (DMS 114 small cell lung): > 100 µM
- TGI (DMS 273 small cell lung): > 100 µM
- TGI (EKVX NSCLC): > 100 µM
- TGI (HCC-2998 colon): > 100 µM
- TGI (HCT-116 colon): > 100 µM
- TGI (HCT-15 colon): > 100 µM
- TGI (HL-60(TB) leukemia): > 100 µM
- TGI (HOP-92 NSCLC): > 100 µM
- TGI (HT29 colon): > 100 µM
- TGI (IGROV1 ovarian): > 100 µM
- TGI (K-562 leukemia): > 100 µM
- TGI (KM20L2 colon): > 100 µM
- TGI (LOX IMVI melanoma): > 100 µM
- TGI (LXFL 529 NSCLC): > 100 µM
- TGI (M14 melanoma): > 100 µM
- TGI (M19-MEL melanoma): > 100 µM
- TGI (MOLT-4 leukemia): > 100 µM
- TGI (NCI-H226 lung): > 100 µM
- TGI (NCI-H23 lung): > 100 µM
- TGI (NCI-H460 lung): > 100 µM
- TGI (NCI-H522 lung): > 100 µM
- TGI (OVCAR-4 ovarian): > 100 µM
- TGI (OVCAR-5 ovarian): > 100 µM
- TGI (RPMI-8226 leukemia): > 100 µM
- TGI (RXF 393 renal): > 100 µM
- TGI (SF-268 CNS): > 100 µM
- TGI (SF-295 CNS): > 100 µM
- TGI (SF-539 CNS): > 100 µM
- TGI (SK-MEL-2 melanoma): > 100 µM
- TGI (SK-MEL-28 melanoma): > 100 µM
- TGI (SK-MEL-5 melanoma): > 100 µM
- TGI (SK-OV-3 ovarian): > 100 µM
- TGI (SN12C renal): > 100 µM
- TGI (SNB-19 CNS): > 100 µM
- TGI (SNB-75 CNS): > 100 µM
- TGI (SNB-78 CNS): > 100 µM
- TGI (SR leukemia): > 100 µM
- TGI (SW-620 colon): > 100 µM
- TGI (U251 CNS): > 100 µM
- TGI (UACC-62 melanoma): > 100 µM
- TGI (UO-31 renal): > 100 µM
